These results are taken from ChEMBL document CHEMBL1130507, “Synthesis and evaluation of benzophenone-based photoaffinity labeling analogs of prenyl pyrophosphates containing stable amide linkages” (Bioorg Med Chem Lett, 1997).

The structures appear in SMILES notation.

This assay addresses T1, Farnesyltransferase (Saccharomyces cerevisiae S288c, UniProt P22007+P29703).
T1 sequence (P29703 whole entry): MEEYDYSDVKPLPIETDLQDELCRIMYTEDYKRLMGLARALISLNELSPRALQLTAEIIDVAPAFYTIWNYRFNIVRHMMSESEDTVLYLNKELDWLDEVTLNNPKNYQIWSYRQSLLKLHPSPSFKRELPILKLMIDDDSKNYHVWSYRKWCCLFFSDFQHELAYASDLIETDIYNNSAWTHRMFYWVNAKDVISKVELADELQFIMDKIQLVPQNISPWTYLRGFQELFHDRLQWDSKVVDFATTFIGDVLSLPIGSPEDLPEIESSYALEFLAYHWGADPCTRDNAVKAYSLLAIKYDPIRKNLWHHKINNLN
T1 sequence (P22007 whole entry): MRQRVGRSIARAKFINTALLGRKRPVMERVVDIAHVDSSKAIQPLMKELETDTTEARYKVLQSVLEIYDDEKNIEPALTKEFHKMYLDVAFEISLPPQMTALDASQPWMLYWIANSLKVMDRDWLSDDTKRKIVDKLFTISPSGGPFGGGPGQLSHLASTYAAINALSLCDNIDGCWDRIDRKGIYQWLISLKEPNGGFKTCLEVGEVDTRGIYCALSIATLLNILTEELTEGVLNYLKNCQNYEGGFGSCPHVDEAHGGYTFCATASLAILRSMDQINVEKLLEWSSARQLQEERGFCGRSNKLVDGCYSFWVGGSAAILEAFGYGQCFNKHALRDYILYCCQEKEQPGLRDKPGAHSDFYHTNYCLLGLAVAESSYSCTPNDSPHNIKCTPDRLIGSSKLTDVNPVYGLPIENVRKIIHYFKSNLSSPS
Kind of assay: Inhibition of yeast Farnesyl transferase. Format: protein-complex assay.

As a reminder, the IC50 is the concentration that inhibits the measured activity by half. Read a low IC50 as higher potency. `C/C(=C\COP(=O)(O)OP(=O)(O)O)CC/C=C(\C)CN1C(=O)c2ccccc2C1=O` gave a half-maximal inhibitory concentration (IC50) of 10000 nM.
In general, Ki refers to a dissociation constant, usually derived from enzyme kinetics or from competition with a known ligand. In turn, `C/C(=C\COP(=O)(O)OP(=O)(O)O)COC(=O)c1cccc(C(=O)c2ccccc2)c1` showed an IC50 of 2000 nM and a Ki of 960 nM.
Regarding `C/C(=C\COP(=O)(O)OP(=O)(O)O)CC/C=C(\C)CNC(=O)c1cccc(C(=O)c2ccccc2)c1`, the IC50 worked out at 3700 nM and the Ki came to 700 nM.
Consider `C/C(=C\COP(=O)(O)OP(=O)(O)O)CNC(=O)c1cccc(C(=O)c2ccccc2)c1`, for which the IC50 was 37000 nM and the Ki worked out at 6000 nM.
Usually Kd stands for the constant that tells how readily two partners part at equilibrium. A high value points to a looser complex. As for `CC(C)=CCC/C(C)=C/CC/C(C)=C/CO[P@@](=O)(O)OP(=O)(O)O` [FARNESYL DIPHOSPHATE], the Kd amounted to 75 nM.
In the case of `C/C(=C\COP(=O)(O)OP(=O)(O)O)CC/C=C(\C)COC(=O)c1cccc(C(=O)c2ccccc2)c1`, inhibition was half-maximal at 2300 nM (IC50) and the affinity corresponds to a Ki of 380 nM.
